In the Kinase Knowledgebase extract (Sharma et al. 2016) one finds IC50 data, which are given here for 40 compounds.

For the test, the target named is PIK3CD (Human) (UniProt O00329). The test can be described thus: Assessment of PIK3CD Kinase Activity (Scintillation Proximity Assay). (In a scintillation proximity assay essentially only radioactivity close to the scintillant gives light.)
Sequence of PIK3CD (Human) (O00329 whole entry, looked up): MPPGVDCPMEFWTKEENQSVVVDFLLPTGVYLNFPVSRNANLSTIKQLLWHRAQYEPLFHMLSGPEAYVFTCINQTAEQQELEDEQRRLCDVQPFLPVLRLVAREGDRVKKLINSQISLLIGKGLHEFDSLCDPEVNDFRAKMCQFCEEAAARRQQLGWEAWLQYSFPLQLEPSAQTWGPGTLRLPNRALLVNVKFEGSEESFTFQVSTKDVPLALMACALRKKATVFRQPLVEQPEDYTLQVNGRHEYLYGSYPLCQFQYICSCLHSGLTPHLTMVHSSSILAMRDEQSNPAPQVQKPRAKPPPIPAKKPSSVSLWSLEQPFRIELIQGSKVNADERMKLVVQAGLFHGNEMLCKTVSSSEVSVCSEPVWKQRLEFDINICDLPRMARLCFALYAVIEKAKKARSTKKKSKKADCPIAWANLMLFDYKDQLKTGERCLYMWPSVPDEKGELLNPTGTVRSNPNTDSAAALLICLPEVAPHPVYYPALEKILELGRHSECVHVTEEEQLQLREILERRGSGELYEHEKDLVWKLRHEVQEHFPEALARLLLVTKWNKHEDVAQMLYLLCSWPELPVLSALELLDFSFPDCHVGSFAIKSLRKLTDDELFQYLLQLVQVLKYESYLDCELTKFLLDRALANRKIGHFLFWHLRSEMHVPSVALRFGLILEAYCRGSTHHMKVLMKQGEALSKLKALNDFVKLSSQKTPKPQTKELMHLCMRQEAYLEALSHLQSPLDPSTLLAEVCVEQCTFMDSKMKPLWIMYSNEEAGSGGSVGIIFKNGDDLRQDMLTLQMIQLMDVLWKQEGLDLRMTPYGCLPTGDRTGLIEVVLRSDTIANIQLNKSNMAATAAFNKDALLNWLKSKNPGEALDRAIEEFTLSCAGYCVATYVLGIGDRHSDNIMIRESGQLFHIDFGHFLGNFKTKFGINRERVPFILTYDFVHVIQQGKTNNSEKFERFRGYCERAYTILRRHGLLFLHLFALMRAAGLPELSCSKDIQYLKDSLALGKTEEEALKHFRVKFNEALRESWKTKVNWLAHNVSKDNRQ
Regarding `CCOc1c(C(C)n2nc(-c3cncc(C(=O)N(C)C)c3)c3c(N)ncnc32)cc(Cl)c(C)c1-c1ccc(C(=O)N(C)C)nc1` (stereo not given), the IC50 (commonly the concentration that gives 50% inhibition) was at most 10 nM.

In turn, `CCOc1c(C(C)n2nc(C)c3c(N)ncnc32)cc(Cl)c(F)c1C1CNC(=O)C1` (stereo not given) showed an IC50 of at most 10 nM.

In turn, `COc1c(C(C)n2nc(C)c3c(N)ncnc32)cc(Cl)c(C)c1-c1ccc(C(=O)NCCO)nc1` (stereo not given) gave an IC50 of at most 10 nM.

In the case of `CCOc1c(C(C)n2nc(C)c3c(N)ncnc32)cc(Cl)c(C#N)c1C1CN(C(=O)N(C)C)C1` (stereo not given), the IC50 was at most 10 nM.

Turning to `CCOc1c(C(C)n2nc(C)c3c(N)ncnc32)cc(C)c(C#N)c1N1CCCC1` (stereo not given), the IC50 is at most 10 nM.

In turn, `CCOC(=O)N1CC(c2c(C#N)c(Cl)cc(C(C)n3nc(C)c4c(N)ncnc43)c2OC)C1` (stereo not given) registered a concentration for half-maximal inhibition (IC50) of at most 10 nM.

`COc1c(C(C)n2nc(C)c3c(N)ncnc32)cc(Cl)c(F)c1C1CN(C[C@@H](C)O)C1` (stereo not given in full) showed an IC50 of at most 10 nM.

`COc1c(C(C)n2nc(C)c3c(N)ncnc32)cc(Cl)c(C)c1C1CN(CC(F)(F)F)C1` (stereo not given) yielded an IC50 of at most 10 nM.

Consider `COc1c(C(C)n2nc(C)c3c(N)ncnc32)cc(Cl)c(C)c1C1CN(C[C@H](C)O)C1` (stereo not given in full), for which the IC50 was at most 10 nM.

`CCOc1c(C(C)n2nc(C(F)F)c3c(N)ncnc32)cc(Cl)c(F)c1C1CN(CC(C)(C)O)C1` (stereo not given): the IC50 was at most 10 nM.

In turn, `CCOc1c(C(C)n2nc(CC#N)c3c(N)ncnc32)cc(Cl)c(C)c1-c1ccc(C(=O)N(C)C)nc1` (stereo not given) had an IC50 of at most 10 nM.

`COc1c(C(C)n2ccc(=O)c3c(N)ncnc32)cc(Cl)c(C)c1-c1ccc(C(=O)N(C)C)nc1` (stereo not given) registered an IC50 of at most 10 nM.

`COc1c(C(C)n2nc(C)c3c(N)ncnc32)cc(Cl)c(C)c1C1CN(CC(C)C#N)C1` (stereo not given): the concentration for half-maximal inhibition (IC50) was at most 10 nM.

For `CCOc1c(C(C)n2nc(C)c3c(N)ncnc32)cc(Cl)c(F)c1C1CN(C(C)C)C1` (stereo not given), the IC50 is at most 10 nM.

For `CNC(=O)[C@@H](C)N1CC(c2c(C)c(Cl)cc(C(C)n3nc(C)c4c(N)ncnc43)c2OC)C1` (stereo not given in full), the IC50 is at most 10 nM.

As for `COc1c(C(C)n2nc(C)c3c(N)ncnc32)cc(Cl)c(C)c1-c1ccc(N(C)C)nc1` (stereo not given), the IC50 was at most 10 nM.

The compound `COc1c(C(C)n2nc(C)c3c(N)ncnc32)cc(Cl)c(C)c1C1CN([C@@H](C)CO)C1` (stereo not given in full) registered an IC50 of at most 10 nM.

As to `COc1c(C(C)n2nc(C(F)F)c3c(N)ncnc32)cc(C#N)c(C)c1C1CN(CCO)C1` (stereo not given), the IC50 is at most 10 nM.

With `CCOc1c(C(C)n2nc(C)c3c(N)ncnc32)cc(Cl)c(F)c1C1CN(CC(F)(F)F)C1` (stereo not given), the IC50 is at most 10 nM.

For `CCOc1c(C(C)n2nc(C(F)F)c3c(N)ncnc32)cc(Cl)c(F)c1C1CN(C[C@@H](C)O)C1` (stereo not given in full), the IC50 was at most 10 nM.

Regarding `COc1c(C(C)n2nc(C)c3c(N)ncnc32)cc(Cl)c(C#N)c1C1CN(C2CCOCC2)C1` (stereo not given), the IC50 was at most 10 nM.

The compound `COc1c(C(C)n2nc(C)c3c(N)ncnc32)cc(Cl)c(C)c1C1CN(C(=O)C2CC2)C1` (stereo not given) yielded an IC50 of at most 10 nM.

`COc1c(C(C)n2nc(C)c3c(N)ncnc32)cc(Cl)c(C)c1-c1ccnc(C(=O)NCCO)c1` (stereo not given) gave an IC50 of at most 10 nM.

Compound `CCOc1c(C(C)n2nc(C)c3c(N)ncnc32)cc(Cl)c(C#N)c1C1CN(CC2CCOC2)C1` (stereo not given) registered a concentration for half-maximal inhibition (IC50) of at most 10 nM.

For `CCOc1c(C(C)n2nc(C)c3c(N)ncnc32)cc(Cl)c(C#N)c1C1CN(C2CCC2)C1` (stereo not given), the IC50 is at most 10 nM.

For the compound `COc1c(C(C)n2nc(C)c3c(N)ncnc32)cc(Cl)c(Cl)c1C1CN(CC#N)C1` (stereo not given), the IC50 was at most 10 nM.

Turning to `CCOc1c(C(C)n2nc(C)c3c(N)ncnc32)cc(Cl)c(C#N)c1C1CN(C(N)=O)C1` (stereo not given), the IC50 is at most 10 nM.

For the compound `COc1c(C(C)n2nc(C)c3c(N)ncnc32)cc(Cl)c(Cl)c1C1CN(C2COC2)C1` (stereo not given), the IC50 is at most 10 nM.

In turn, `COc1c(C(C)n2nc(C)c3c(N)ncnc32)cc(Cl)c(C#N)c1C1CN(C[C@@H](C)O)C1` (stereo not given in full) had an IC50 of at most 10 nM.

Regarding `COc1c(C(C)n2nc(C)c3c(N)ncnc32)cc(Cl)c(C#N)c1C1CN(C[C@H](C)O)C1` (stereo not given in full), the IC50 is at most 10 nM.

As to `COc1c(C(C)n2nc(C)c3c(N)ncnc32)cc(Cl)c(C)c1C1CNC(=O)O1` (stereo not given), the IC50 is at most 10 nM.

`CCOc1c(C(C)n2nc(-c3cncc(C#N)c3)c3c(N)ncnc32)cc(Cl)c(C)c1-c1ccc(C(=O)N(C)C)nc1` (stereo not given) returned an IC50 of at most 10 nM.

On to `CCOc1c(C(C)n2nc(C)c3c(N)ncnc32)cc(Cl)c(C)c1C1CN(C(C)C)C1` (stereo not given), for which the IC50 is at most 10 nM.

In turn, `CCOc1c(C(C)n2nc(C#N)c3c(N)ncnc32)cc(Cl)c(C)c1-c1ccc(C(=O)N(C)C)nc1` (stereo not given) showed an IC50 of 10 to 50 nM.

Compound `CCOc1c(C(C)n2nc(C)c3c(N)ncnc32)cc(C#N)c(C)c1-c1cnn(C)c1` (stereo not given) gave an IC50 of at most 10 nM.

`COc1c(C(C)n2nc(C(F)F)c3c(N)ncnc32)cc(C#N)c(C)c1C1CN(C(C)C)C1` (stereo not given) came in with an IC50 of at most 10 nM.

With `CCOc1c(C(C)n2nc(C)c3c(N)ncnc32)cc(Cl)c(C)c1C1CN(C(=O)[C@H](C)O)C1` (stereo not given in full), the concentration for half-maximal inhibition (IC50) was at most 10 nM.

As for `COc1c(C(C)n2nc(C)c3c(N)ncnc32)cc(Cl)c(C)c1C1CN(C(=O)c2cnn(C)c2)C1` (stereo not given), the half-maximal inhibitory concentration (IC50) is at most 10 nM.

Compound `CCOc1c(C(C)n2nc(C)c3c(N)ncnc32)cc(Cl)c(C#N)c1C1CN(CC#N)C1` (stereo not given) came in with an IC50 of at most 10 nM.

`CCOc1c(C(C)n2nc(-c3ccc(C(=O)N(C)C)nc3)c3c(N)ncnc32)cc(Cl)c(C)c1-c1ccc(C(=O)N(C)C)nc1` (stereo not given) registered an IC50 of 10 to 50 nM.
